Measurements from patent publication US11999727B2 (Tango Therapeutics, Inc., priority 2020, dated 2024).

Experiments:
[1] = target: T1, PRMT5 (Homo sapiens, UniProt O14744); test: PRMT5 biochemical IC50 assay with SAM as cofactor; conditions: PRMT5, SAM as cofactor; read-out: SAM IC50
T1 construct: purchased Viva (custom protein)

[2] = system: HAP1 MTAP-deleted cell line; test: Viability assay, MTAP-deleted cell line; format: cell-based; conditions: Homo sapiens, HAP1, viability assay, MTAP-deleted cell line; read-out: HAP1 MTAP deleted viability
Description: Table 1 additionally indicates IC50 values in a viability assay for the MTAP-deleted cell line (column 10), indicating the effect of treatment with compound on cell survival.

[3] = system: HAP1 MTAP-deleted cell line; test: SDMA in-cell western assay, HAP1 MTAP-deleted; format: cell-based; conditions: for IC50: Homo sapiens, HAP1, SDMA in-cell western, HAP1 MTAP-deleted, read-out: HAP1 MTAP deleted IC50; for MTAP intact/deleted ratio: IC50 ratio HAP1 MTAP-intact / HAP1 MTAP-deleted, SDMA in-cell western
Method in brief: (§1)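 IC50 values come from SDMA signal quantified by in-cell western in two HAP1 lines, one with native MTAP levels and one lacking MTAP.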

[4] = target: T1, PRMT5; test: PRMT5 biochemical IC50 assay with no cofactor; conditions: PRMT5, no cofactor; read-out: No Cofactor/rel IC50
Description: Table 1 indicates IC50 values (μM) against PRMT5 for exemplary compounds in the presence of SAM as cofactor, with no cofactor, and with MTA as cofactor, respectively (columns 4-6). […] Ki values can be calculated from the IC50 values as described in the Examples section. As detailed in the Examples section, for the assay performed in the presence of SAM, IC50=Ki×1.5 (Ki=IC50/1.5).

[5] = system: HAP1 MTAP-intact cell line; test: SDMA in-cell western assay, HAP1 MTAP-intact; format: cell-based; conditions: Homo sapiens, HAP1, SDMA in-cell western, HAP1 MTAP-intact; read-out: MTAP HAP1 intact IC50
Method in brief: as §1

[6] = target: T1, PRMT5; test: PRMT5 biochemical IC50 assay with MTA as cofactor; conditions: PRMT5, MTA as cofactor; read-out: MTA IC50

T1 sequence (O14744 whole entry): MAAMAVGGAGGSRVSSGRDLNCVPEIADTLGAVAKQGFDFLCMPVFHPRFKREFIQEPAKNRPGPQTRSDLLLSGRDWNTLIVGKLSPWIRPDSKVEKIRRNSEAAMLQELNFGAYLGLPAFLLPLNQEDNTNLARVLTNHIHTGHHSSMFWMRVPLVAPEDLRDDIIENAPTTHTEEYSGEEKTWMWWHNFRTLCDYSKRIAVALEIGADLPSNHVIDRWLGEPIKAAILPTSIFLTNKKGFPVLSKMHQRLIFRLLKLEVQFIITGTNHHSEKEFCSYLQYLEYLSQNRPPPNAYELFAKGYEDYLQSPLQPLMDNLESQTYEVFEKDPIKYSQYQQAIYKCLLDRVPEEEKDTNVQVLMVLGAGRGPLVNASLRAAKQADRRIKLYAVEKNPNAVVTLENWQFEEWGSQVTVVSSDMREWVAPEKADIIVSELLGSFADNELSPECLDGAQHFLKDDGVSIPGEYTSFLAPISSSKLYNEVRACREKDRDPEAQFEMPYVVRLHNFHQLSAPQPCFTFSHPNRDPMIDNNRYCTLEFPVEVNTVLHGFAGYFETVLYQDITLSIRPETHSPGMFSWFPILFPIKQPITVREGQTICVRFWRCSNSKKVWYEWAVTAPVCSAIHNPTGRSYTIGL
T1 sequence (Q9BQA1 whole entry partner): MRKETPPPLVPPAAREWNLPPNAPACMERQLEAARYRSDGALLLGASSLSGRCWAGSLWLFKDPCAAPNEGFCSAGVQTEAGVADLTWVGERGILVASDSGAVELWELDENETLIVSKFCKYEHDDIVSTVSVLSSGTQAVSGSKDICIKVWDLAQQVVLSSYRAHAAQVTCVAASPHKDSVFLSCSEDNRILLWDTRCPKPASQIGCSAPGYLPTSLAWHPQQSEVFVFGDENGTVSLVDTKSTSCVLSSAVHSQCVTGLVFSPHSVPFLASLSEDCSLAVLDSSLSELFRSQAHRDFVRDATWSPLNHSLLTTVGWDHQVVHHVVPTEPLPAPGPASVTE

Row | IC50 [1] [µM] | IC50 [3] [µM] | IC50 [4] [µM] | IC50 [5] [µM] | IC50 [6] [µM] | Compound | IC50 [2] [µM] | MTAP intact/deleted ratio [3]
1 | 0.05 to 0.5 | 0.1 to 1 | 0.05 to 0.5 | > 1 | < 0.05 | C[C@@H]1CC[C@@H](c2ccc(Cl)c(Cl)c2)N(C(=O)C(=O)Nc2cncc(C(N)=O)c2)C1 (racemic) [Compound 243, rac-5-{2-[(2R,5S)-2-(3,4-Dichlorophenyl)-5-methylpiperidin-1-yl]-2-oxoacetamido}pyridine-3-carboxamide] | 1 to 10 | A (an IC50 ratio greater than or equal to 10 fold)
2 | 0.05 to 0.5 | < 0.1 | 0.05 to 0.5 | > 1 | < 0.05 | C[C@@H]1CC[C@@H](c2ccc(C#N)c(C3CC3)c2)N(C(=O)C(=O)Nc2cncc(C(N)=O)c2)C1 (racemic) [Compound 244, rac-5-{2-[(2R,5S)-2-(4-Cyano-3-cyclopropylphenyl)-5-methylpiperidin-1-yl]-2-oxoacetamido}pyridine-3-carboxamide] | 1 to 10 | A (an IC50 ratio greater than or equal to 10 fold)
3 | 0.05 to 0.5 | 0.1 to 1 | 0.05 to 0.5 | > 1 | < 0.05 | C[C@@H]1CC[C@@H](c2ccc(C#N)cc2)N(C(=O)C(=O)Nc2cncc(C(N)=O)c2)C1 (racemic) [Compound 246, rac-5-{2-[(2R,5S)-2-(4-Cyanophenyl)-5-methylpiperidin-1-yl]-2-oxoacetamido}pyridine-3-carboxamide] | 1 to 10 | A (an IC50 ratio greater than or equal to 10 fold)
4 | 0.05 to 0.5 | < 0.1 | 0.05 to 0.5 | > 1 | < 0.05 | C[C@@H]1CC[C@@H](c2cccc(F)c2)N(C(=O)C(=O)Nc2cncc(C(N)=O)c2)C1 (racemic) [Compound 247, rac-5-{2-[(2R,5S)-2-(3-Fluorophenyl)-5-methylpiperidin-1-yl]-2-oxoacetamido}pyridine-3-carboxamide] | 1 to 10 | A (an IC50 ratio greater than or equal to 10 fold)
5 | > 0.5 | > 1 | > 0.5 | > 1 | 0.05 to 0.5 | C[C@@H]1CC[C@@H](c2cncc(F)c2)N(C(=O)C(=O)Nc2cncc(C(N)=O)c2)C1 (racemic) [Compound 248, rac-5-{2-[(2R,5S)-2-(5-Fluoropyridin-3-yl)-5-methylpiperidin-1-yl]-2-oxoacetamido}pyridine-3-carboxamide] | > 10 | B (an IC50 ratio greater than or equal to 3 fold but lower than 10 fold)
6 | 0.05 to 0.5 | > 1 | > 0.5 | > 1 | 0.05 to 0.5 | CNC(=O)[C@@H]1CC[C@@H](c2ccccc2)N(C(=O)C(=O)Nc2cnc(N)c(C)c2)C1 (racemic) [Compound 249, 1-(2-((6-amino-5-methylpyridin-3-yl)amino)-2-oxoacetyl)-N-methyl-6-phenylpiperidine-3-carboxamide] | > 10 | C (an IC50 ratio of less than 3 fold)
7 | 0.05 to 0.5 | < 0.1 | 0.05 to 0.5 | > 1 | < 0.05 | C[C@@H]1CC[C@@H](c2ccc(OC(F)(F)F)cc2)N(C(=O)C(=O)Nc2cncc(C(N)=O)c2)C1 (racemic) [Compound 250, rac-5-{2-[(2R,5S)-5-Methyl-2-[4-(trifluoromethoxy)phenyl]piperidin-1-yl]-2-oxoacetamido}pyridine-3-carboxamide] | 1 to 10 | A (an IC50 ratio greater than or equal to 10 fold)
8 | 0.05 to 0.5 | < 0.1 | 0.05 to 0.5 | > 1 | < 0.05 | C[C@@H]1CC[C@@H](c2ccc(C(F)(F)F)cc2)N(C(=O)C(=O)Nc2cncc(C(N)=O)c2)C1 (racemic) [Compound 251, rac-5-{2-[(2R,5S)-5-Methyl-2-[4-(trifluoromethyl)phenyl]piperidin-1-yl]-2-oxoacetamido}pyridine-3-carboxamide] | 1 to 10 | A (an IC50 ratio greater than or equal to 10 fold)
9 | 0.05 to 0.5 | 0.1 to 1 | 0.05 to 0.5 | > 1 | < 0.05 | C[C@@H]1CC[C@@H](c2ccc(Cn3cncn3)cc2)N(C(=O)C(=O)Nc2cncc(C(N)=O)c2)C1 (racemic) [Compound 252, rac-5-{2-[(2R,5S)-5-Methyl-2-{4-[(1H-1,2,4-triazol-1-yl)methyl]phenyl}piperidin-1-yl]-2-oxoacetamido}pyridine-3-carboxamide] | > 10 | A (an IC50 ratio greater than or equal to 10 fold)
10 | 0.05 to 0.5 | > 1 | > 0.5 | > 1 | 0.05 to 0.5 | CNC(=O)[C@@H]1CC[C@H](c2ccccc2)N(C(=O)C(=O)Nc2cnc(N)c(C)c2)C1 (racemic) [Compound 253, 1-(2-((6-amino-5-methylpyridin-3-yl)amino)-2-oxoacetyl)-N-methyl-6-phenylpiperidine-3-carboxamide] | > 10 | C (an IC50 ratio of less than 3 fold)
11 | 0.05 to 0.5 | 0.1 to 1 | 0.05 to 0.5 | > 1 | < 0.05 | C[C@@H]1CC[C@@H](c2ccc(F)c(C(F)(F)F)c2)N(C(=O)C(=O)Nc2cncc(C(N)=O)c2)C1 (racemic) [Compound 255, rac-5-{2-[(2R,5S)-2-[4-Fluoro-3-(trifluoromethyl)phenyl]-5-methylpiperidin-1-yl]-2-oxoacetamido}pyridine-3-carboxamide] | 1 to 10 | A (an IC50 ratio greater than or equal to 10 fold)
12 | 0.05 to 0.5 | < 0.1 | 0.05 to 0.5 | > 1 | < 0.05 | C[C@@H]1CC[C@@H](c2ccc(-n3cccn3)cc2)N(C(=O)C(=O)Nc2cncc(C(N)=O)c2)C1 (racemic) [Compound 256, rac-5-{2-[(2R,5S)-5-Methyl-2-[4-(1H-pyrazol-1-yl)phenyl]piperidin-1-yl]-2-oxoacetamido}pyridine-3-carboxamide] | 1 to 10 | A (an IC50 ratio greater than or equal to 10 fold)
13 | > 0.5 | > 1 | > 0.5 | > 1 | 0.05 to 0.5 | C[C@@H]1CC[C@@H](c2cnc3ccccc3c2)N(C(=O)C(=O)Nc2cncc(C(N)=O)c2)C1 (racemic) [Compound 257, rac-5-{2-[(2R,5S)-5-Methyl-2-(quinolin-3-yl)piperidin-1-yl]-2-oxoacetamido}pyridine-3-carboxamide] | > 10 | B (an IC50 ratio greater than or equal to 3 fold but lower than 10 fold)
14 | 0.05 to 0.5 | 0.1 to 1 | 0.05 to 0.5 | > 1 | 0.05 to 0.5 | C[C@@H]1CC[C@@H](c2ccc(C3(O)CCC3)cc2)N(C(=O)C(=O)Nc2cncc(C(N)=O)c2)C1 (racemic) [Compound 259, rac-5-{2-[(2R,5S)-2-[4-(1-Hydroxycyclobutyl)phenyl]-5-methylpiperidin-1-yl]-2-oxoacetamido}pyridine-3-carboxamide] | > 10 | A (an IC50 ratio greater than or equal to 10 fold)
